{"source": "patent US5972379A", "about": "“Liposome composition and method for administering a quinolone” (Sequus Pharmaceuticals, Inc., priority 1998, dated 1999)", "key": {"[1]": {"details": "cited from earlier work"}, "[2]": {"test_system": "E. faecalis", "assay": "Minimum inhibitory concentration, broth microdilution (NCCLS M7-A)", "format": "cell-based", "details": "Enterococcus faecalis, read-out: Minimum Inhibitory Concentration", "description": "(§1) The minimum inhibitory concentration of the drugs against the bacterial strains S. pyrogenes, E. faecalis, S. aureus, E. coli and P. aeruginosa were determined."}, "[3]": {"test_system": "P. aeruginosa", "assay": "Minimum inhibitory concentration, broth microdilution (NCCLS M7-A)", "format": "cell-based", "details": "Pseudomonas aeruginosa, read-out: Minimum Inhibitory Concentration", "description": "as §1"}, "[4]": {"test_system": "S. pyrogenes", "assay": "Minimum inhibitory concentration, broth microdilution (NCCLS M7-A)", "format": "cell-based", "details": "read-out: Minimum Inhibitory Concentration", "description": "as §1"}, "[5]": {"test_system": "S. aureus", "assay": "Minimum inhibitory concentration, broth microdilution (NCCLS M7-A)", "format": "cell-based", "details": "Staphylococcus aureus, inoculum 5×10^5 CFU/ml", "description": "(§2) As described above, glycinyl-ciprofloxacin was prepared as set forth in Example 2A-2B and tested for antimicrobial activity in vitro, as described in Example 2C. The minimum inhibitory concentration of the drugs against the bacterial strains S. pyrogenes, E. faecalis, S. aureus, E. coli and P. aeruginosa were determined.\n(§3) Minimum inhibitory concentrations were determined by a broth microdilution technique following the National Committee for Clinical Laboratory Standards guidelines (NCCLS document M7-A, National Committee for Laboratory Standards, Villanova, Pa., 1994 Approved Standard for \"Methods for dilution antimicrobial susceptibility tests for bacteria that grow aerobically\") with a starting inoculum of 5×10^5 CFU/ml."}, "[6]": {"assay": "Remote drug loading into PEG-coated liposomes", "format": "physicochemical", "details": "for % Drug Loading / Drug Conc. at Lipid Conc. of 36 mg/ml / Internal Liposome Drug Conc.: Drug:Lipid Ratio (mg/ml/mM) 2.5:50 (lysine-cipro), 5:50 (glycine-cipro)", "description": "The chloroform was removed using a flash evaporator under reduced pressure until dryness. To the thin lipid film on the surface of the flask was added 15 ml of a solution of 250 mM ammonium sulfate, pH 5.5 and the lipids were dispersed in the solution by vigorous shaking for approximately 30 minutes at 60° C. The multilamellar vesicles obtained were extruded 6 times through a 0.4 μm pore-size Nucleopore polycarbonate filter, 6 times through a 0.1 μm polycarbonate filter and 3 times through a 0.05 μm polycarbonate filter using a stainless steel extrusion cell under a pressure of 200-400 psig. The extrusion process was carried out at 60° C. […] The liposomes were then dialyzed overnight against 4 liters 10% sucrose to remove external ammonium sulfate at 4° C.\nThe mixtures were incubated at 60° C. for 30 minutes. After incubation, the mixtures were immediately cooled in an ice bath. Aliquot samples were taken and the percent of drug loading was determined by using a Sephadex G-50 column (1.0×19 cm)."}, "[7]": {"test_system": "E. coli", "assay": "Minimum inhibitory concentration, broth microdilution (NCCLS M7-A)", "format": "cell-based", "details": "Escherichia coli, inoculum 5×10^5 CFU/ml", "description": "as §2, §3"}, "[8]": {"test_system": "S. pyrogenes, E. faecalis, S. aureus, E. coli and P. aeruginosa", "assay": "Antimicrobial activity of conjugate versus ciprofloxacin (MIC, summary in words)", "format": "cell-based", "details": "compared with ciprofloxacin, MICs of Table 1", "description": "as §1"}, "[9]": {"details": "amino group (NH3) of amino acid, Lehninger"}, "[10]": {"details": "amino acid used to modify ciprofloxacin"}}, "note": "Like-named read-outs stand apart in the source and are kept apart here."}
{"molecule": "C[C@H](N)C(=O)O", "note": "[alanine]", "values": [{"measurement": "pKa", "setting": "[1]; [9]", "value": 9.7}]}
{"molecule": "N=C(N)NCCC[C@H](N)C(=O)O", "note": "[arginine]", "values": [{"measurement": "pKa", "setting": "[1]; [9]", "value": 9.04}]}
{"molecule": "O=C(O)c1cn(C2CC2)c2cc(N3CCNCC3)c(F)cc2c1=O", "note": "[ciprofloxacin, 1-cyclopropyl-6-fluoro-1,4-dihydro-4-oxo-7-(1-piperazinyl)-3-quinoline carboxylic acid]", "values": [{"measurement": "MIC", "setting": "[2]", "value": 1, "unit": "µg/mL"}, {"measurement": "MIC", "setting": "[3]", "value": "< 0.5", "unit": "µg/mL"}, {"measurement": "MIC", "setting": "[4]", "value": "< 0.5", "unit": "µg/mL"}, {"measurement": "MIC", "setting": "[5]", "value": 1, "unit": "µg/mL"}, {"measurement": "percent of drug loading", "setting": "[6]; lipid/drug ratio 2", "value": 49, "unit": "%"}, {"measurement": "percent of drug loading", "setting": "[6]; lipid/drug ratio 4", "value": 75, "unit": "%"}, {"measurement": "percent of drug loading", "setting": "[6]; lipid/drug ratio 8", "value": 90, "unit": "%"}, {"measurement": "ciprofloxacin loading", "setting": "[6]; lipid/drug ratio 8, as stated in leakage test", "value": 75, "unit": "%"}, {"measurement": "percent of drug loading", "setting": "[6]; lipid/drug ratio 16", "value": 91, "unit": "%"}]}
{"molecule": "NCC(=O)O", "note": "[glycine]", "values": [{"measurement": "pKa", "setting": "[1]; [9]", "value": 9.6}]}
{"molecule": "NCC(=O)N1CCN(c2cc3c(cc2F)c(=O)c(C(=O)O)cn3C2CC2)CC1", "note": "[glycinyl-ciprofloxacin]", "values": [{"measurement": "MIC", "setting": "[2]; E. faecalis, inoculum 5×10^5 CFU/ml", "value": 32, "unit": "µg/mL"}, {"measurement": "MIC", "setting": "[3]; P. aeruginosa, inoculum 5×10^5 CFU/ml", "value": "> 512", "unit": "µg/mL"}, {"measurement": "MIC", "setting": "[4]; S. pyrogenes, inoculum 5×10^5 CFU/ml", "value": 4, "unit": "µg/mL"}, {"measurement": "MIC", "setting": "[7]", "value": 8, "unit": "µg/mL"}, {"measurement": "MIC", "setting": "[5]", "value": 32, "unit": "µg/mL"}, {"measurement": "% Drug Loading", "setting": "[6]", "value": 75, "unit": "%"}, {"measurement": "Drug Conc. at Lipid Conc. of 36 mg/ml", "setting": "[6]", "value": 5}, {"measurement": "Internal Liposome Drug Conc.", "setting": "[6]", "value": 37.5, "unit": "mg/mL"}, {"measurement": "potency relative to ciprofloxacin", "setting": "[8]", "value": "some loss of potency"}]}
{"molecule": "NCCCC[C@H](N)C(=O)O", "note": "[lysine]", "values": [{"measurement": "pKa", "setting": "[1]; [9]", "value": 8.95}]}
{"molecule": "NCCCC[C@H](N)C(=O)N1CCN(c2cc3c(cc2F)c(=O)c(C(=O)O)cn3C2CC2)CC1", "note": "[lysinyl-ciprofloxacin]", "values": [{"measurement": "% Drug Loading", "setting": "[6]", "value": 73, "unit": "%"}, {"measurement": "Drug Conc. at Lipid Conc. of 36 mg/ml", "setting": "[6]", "value": 1.825}, {"measurement": "Internal Liposome Drug Conc.", "setting": "[6]", "value": 13.1, "unit": "mg/mL"}]}
{"molecule": "α-aminocapric acid", "values": [{"measurement": "pKa", "setting": "[1]; [10]", "value": 9.6}]}
{"molecule": "ε-aminocapric acid", "values": [{"measurement": "pKa", "setting": "[1]; [10]", "value": 10.5}]}
